Counter-ions that a name gives are not always drawn.
Tests used:
[1] = tested on: tomato leaf transpiration; assay: tomato leaf transpiration inhibition bioassay; format: in vivo, Tomato (variety: Rutgers)
Description: The compositions of the present invention improve ABA effectiveness by incorporating a surfactant, and optionally a nitrogen-containing fertilizer together with an effective amount of the plant growth regulator abscisic acid (S-ABA; ABA; S-(+)-abscisic acid; +-ABA, (+)-(S)-cis, trans-abscisic acid, (+)-(S)-cis,trans-ABA; S-ABA; (S)-5-(1-hydroxy-2,6,6,-trimethyl-4-oxo-2-cyclohexen-1-yl)-3-methyl-(2Z,4E)-pentadienoic acid; CAS registry no, [21293-29-8]). ABA effectiveness may be measured experimentally by quantifying the inhibition of transpiration in tomato leaves. This is a reliable laboratory bioassay of the level of ABA activity.
Preparation of plant specimens for use in the treatment studies of the examples described was carried out as follows. Tomato (variety: Rutgers) seeds were sown in an 18-cell flat filled with Promix PGX (available from Premier Horticulture Inc. Quakertown, Pa.) and grown for 3 weeks to allow for germination and initial growth. Plants were then transplanted into pots (18 cm in diameter and 18 cm in height), filled with Promix BX (available from Premier Horticulture Inc. Quakertown, Pa.), and grown for one or two more weeks before treatment, depending on temperature and available light. Plants received daily irrigation and weekly fertilizer (1 g/L all purpose fertilizer 20-20-20, available from The Scotts Company, Marysville, Ohio).
All treatment solutions were prepared with distilled water, ABA (95% active ingredient) is available from Lomon BioTechnology Co., Ltd. (Shichuan, China). […]
Unless otherwise specified, when a surfactant was employed, it was incorporated into the 250-ppm ABA treatment solution at a concentration of 0.05% to 0.5% (v/v).
ABA solutions and blank treatments were applied to the aerial parts of tomato plant leaves at the rate of 20 mL per 6 plants. Plants were then placed in a transparent chamber with humidity controlled within the range of 40 to 60% relative humidity. Leaf transpiration rates were measured at 1, 2 and 3 days; at 1, 2, 3 and 4 days; or at 1, 2, 3, 4 and 7 days after treatment. Measurements were conducted using a LI-1600 Steady State Porameter (LI-Cor, Lincoln, Nebr.). Each day the transpiration rate of the plants of each treatment group was normalized to the percentage of the transpiration rate of untreated plants (plants sprayed with water only) in order to control for day-to-day variability caused by changes of environmental conditions such as light intensity and temperature. In some cases, data of each plant was averaged over a 3-day period to balance the short term and long-term effect of ABA on tomato leaf transpiration as well as to control for experimental variability.
(§1) All experiments were conducted using a randomized complete block experimental design. Data were analyzed by analysis of variance. Duncan's new multiple range tests at α-005 were used for mean separations.

Crimson seedless grapes [2] = assay: grape coloring field study, ABA with or without Latron B-1956; format: in vivo; details: for Harvest yield (%): harvest at 64 days after treatment, yield percent with sufficient color
Description: (§2) A grape coloring field study was conducted at Caruthers, Calif., ABA alone at 100 or 200 ppm or its combination with 0.05% Latron B-1956 was foliar applied to Crimson seedless grapes. Number of clusters, with color was counted on a weekly basis, beginning at 21 days after treatment. Percentage of clusters with color was calculated. Grape yield was harvested at 64 days after treatment.
as §1
The effect of 0.05% Latron B-1956 on ABA (100 or 200 ppm) performance in grape coloration was examined (Table 15). Addition of Latron B-1956 increased the percent clusters with color for ABA at 100 or 200 ppm after application and increased the harvest yield percent with sufficient color. ABA at 200 ppm with or without Latron 13-1956 had more color and greater yield than at 100 ppm.

Crimson seedless grapes [3] = assay: grape coloring field study, ABA with or without Brij 98; format: in vivo; details: for Harvest yield (%): harvest at 64 days after treatment, yield percent with sufficient color
Description: as §2, with “Calif.” for “Calif.,”, “Brij 98” for “Latron B-1956”, “clusters” for “clusters,”
as §1
The effect of 0.05% Brij 98 on ABA (100 or 200 ppm) performance in grape coloration was examined in the field (Table 12). Addition of Brij 98 increased the percent of clusters with color for ABA at 100 or 200 ppm after application and increased the harvest yield percent with sufficient color. Treatment with 200 ppm ABA had more colored clusters and yield.

[4] = 250 ppm ABA or ABA ammonium salt, 1 day after treatment (Table 7)
[5] = 250 ppm ABA or ABA ammonium salt, 2 days after treatment (Table 7)
[6] = 250 ppm ABA or ABA ammonium salt, 3 days after treatment (Table 7)
[7] = 250 ppm ABA or ABA ammonium salt, average of days 1-3 after treatment (Table 7)
[8] = 250 ppm ABA or salt at rates equivalent to 250 ppm ABA, 1 day after treatment (Table 10)
[9] = 250 ppm ABA or salt at rates equivalent to 250 ppm ABA, 2 days after treatment (Table 10)
[10] = 250 ppm ABA or salt at rates equivalent to 250 ppm ABA, 3 days after treatment (Table 10)
[11] = 250 ppm ABA or salt at rates equivalent to 250 ppm ABA, average of days 1-3 (Table 10)
[12] = 100 ppm ABA foliar applied, 21 days after application
[13] = 100 ppm ABA foliar applied, 27 days after application
[14] = 100 ppm ABA foliar applied, 35 days after application
[15] = 100 ppm ABA foliar applied, 43 days after application
[16] = 100 ppm ABA foliar applied, 50 days after application
[17] = 100 ppm ABA foliar applied, 56 days after application
[18] = 100 ppm ABA foliar applied, 62 days after application
[19] = 100 ppm ABA foliar applied, 64 days after application
[20] = 200 ppm ABA foliar applied, 21 days after application
[21] = 200 ppm ABA foliar applied, 27 days after application
[22] = 200 ppm ABA foliar applied, 35 days after application
[23] = 200 ppm ABA foliar applied, 43 days after application
[24] = 200 ppm ABA foliar applied, 50 days after application
[25] = 200 ppm ABA foliar applied, 56 days after application
[26] = 200 ppm ABA foliar applied, 62 days after application
[27] = 200 ppm ABA foliar applied, 64 days after application

## CC1=CC(=O)CC(C)(C)[C@@]1(O)/C=C/C(C)=C\C(=O)O [ABA ammonium salt, Ammonium Salt of (S)-(+)-Abscisic Acid]
[1]; [4]
  Transpiration rate (% of control): 68 % of control
[1]; [5]
  Transpiration rate (% of control): 73 % of control
[1]; [6]
  Transpiration rate (% of control): 84 % of control
[1]; [7]
  Transpiration rate (% of control), Average: 75 % of control
[1]; [8]
  Transpiration rate (% of control): 58 % of control
[1]; [9]
  Transpiration rate (% of control): 67 % of control
[1]; [10]
  Transpiration rate (% of control): 78 % of control
[1]; [11]
  Transpiration rate (% of control), Average: 68 % of control

## (S)-5-(1-hydroxy-2,6,6,-trimethyl-4-oxo-2-cyclohexen-1-yl)-3-methyl-(2Z,4E)-pentadienoic acid [ABA]
Crimson seedless grapes [2]; [12]
  % clusters with color: 1.8%
Crimson seedless grapes [2]; [13]
  % clusters with color: 2.7%
Crimson seedless grapes [2]; [14]
  % clusters with color: 5.7%
Crimson seedless grapes [2]; [15]
  % clusters with color: 7.5%
Crimson seedless grapes [2]; [16]
  % clusters with color: 9.4%
Crimson seedless grapes [2]; [17]
  % clusters with color: 26.1%
Crimson seedless grapes [2]; [18]
  % clusters with color: 26.2%
Crimson seedless grapes [2]; [19]
  % clusters with color: 31.2%
Crimson seedless grapes [2]; 100 ppm ABA foliar applied
  Harvest yield (%): 25.5%
Crimson seedless grapes [2]; [20]
  % clusters with color: 7.0%
Crimson seedless grapes [2]; [21]
  % clusters with color: 10.7%
Crimson seedless grapes [2]; [22]
  % clusters with color: 17.3%
Crimson seedless grapes [2]; [23]
  % clusters with color: 20.5%
Crimson seedless grapes [2]; [24]
  % clusters with color: 22.7%
Crimson seedless grapes [2]; [25]
  % clusters with color: 47.9%
Crimson seedless grapes [2]; [26]
  % clusters with color: 50.3%
Crimson seedless grapes [2]; [27]
  % clusters with color: 56.4%
Crimson seedless grapes [2]; 200 ppm ABA foliar applied
  Harvest yield (%): 49.1%
Crimson seedless grapes [3]; [12]
  % clusters with color: 1.8%
Crimson seedless grapes [3]; [13]
  % clusters with color: 2.7%
Crimson seedless grapes [3]; [14]
  % clusters with color: 5.7%
Crimson seedless grapes [3]; [15]
  % clusters with color: 7.5%
Crimson seedless grapes [3]; [16]
  % clusters with color: 9.4%
Crimson seedless grapes [3]; [17]
  % clusters with color: 26.1%
Crimson seedless grapes [3]; [18]
  % clusters with color: 26.2%
Crimson seedless grapes [3]; [19]
  % clusters with color: 31.2%
Crimson seedless grapes [3]; 100 ppm ABA foliar applied
  Harvest yield (%): 25.5%
Crimson seedless grapes [3]; [20]
  % clusters with color: 7.0%
Crimson seedless grapes [3]; [21]
  % clusters with color: 10.7%
Crimson seedless grapes [3]; [22]
  % clusters with color: 17.3%
Crimson seedless grapes [3]; [23]
  % clusters with color: 20.5%
Crimson seedless grapes [3]; [24]
  % clusters with color: 22.7%
Crimson seedless grapes [3]; [25]
  % clusters with color: 47.9%
Crimson seedless grapes [3]; [26]
  % clusters with color: 50.3%
Crimson seedless grapes [3]; [27]
  % clusters with color: 56.4%
Crimson seedless grapes [3]; 200 ppm ABA foliar applied
  Harvest yield (%): 49.1%
[1]; 125 ppm ABA, average of first 3 days after treatment
  Transpiration rate (% of control): 96 % of control
[1]; [4]
  Transpiration rate (% of control): 73 % of control
[1]; [5]
  Transpiration rate (% of control): 76 % of control
[1]; [6]
  Transpiration rate (% of control): 94 % of control
[1]; [7]
  Transpiration rate (% of control), Average: 81 % of control
[1]; 250 ppm ABA or salt at rate equivalent to 250 ppm ABA, 1 day after treatment (Table 8)
  Transpiration rate (% of control): 71 % of control
[1]; 250 ppm ABA or salt at rate equivalent to 250 ppm ABA, 2 days after treatment (Table 8)
  Transpiration rate (% of control): 75 % of control
[1]; 250 ppm ABA or salt at rate equivalent to 250 ppm ABA, 3 days after treatment (Table 8)
  Transpiration rate (% of control): 88 % of control
[1]; 250 ppm ABA or salt at rate equivalent to 250 ppm ABA, average of days 1-3 (Table 8)
  Transpiration rate (% of control), Average: 78 % of control
[1]; [8]
  Transpiration rate (% of control): 59 % of control
[1]; [9]
  Transpiration rate (% of control): 71 % of control
[1]; [10]
  Transpiration rate (% of control): 77 % of control
[1]; [11]
  Transpiration rate (% of control), Average: 69 % of control
[1]; 250 ppm ABA, 1 day after treatment (Table 2)
  Transpiration rate (% of control): 76 % of control
[1]; 250 ppm ABA, 1 day after treatment (Table 5)
  Transpiration rate (% of control): 82 % of control
[1]; 250 ppm ABA, 1 day after treatment (Table 6)
  Transpiration rate (% of control): 71 % of control
[1]; 250 ppm ABA, 1 day after treatment (Table 11)
  Transpiration rate (% of control): 83 % of control
[1]; 250 ppm ABA, 1 day after treatment (Table 13)
  Transpiration rate (% of control): 74 % of control
[1]; 250 ppm ABA, 1 day after treatment (Table 14)
  Transpiration rate (% of control): 74 % of control
[1]; 250 ppm ABA, 2 days after treatment (Table 2)
  Transpiration rate (% of control): 99 % of control
[1]; 250 ppm ABA, 2 days after treatment (Table 5)
  Transpiration rate (% of control): 91 % of control
[1]; 250 ppm ABA, 2 days after treatment (Table 6)
  Transpiration rate (% of control): 84 % of control
[1]; 250 ppm ABA, 2 days after treatment (Table 11)
  Transpiration rate (% of control): 85 % of control
[1]; 250 ppm ABA, 2 days after treatment (Table 14)
  Transpiration rate (% of control): 82 % of control
[1]; 250 ppm ABA, 3 days after treatment (Table 2)
  Transpiration rate (% of control): 93 % of control
[1]; 250 ppm ABA, 3 days after treatment (Table 5)
  Transpiration rate (% of control): 90 % of control
[1]; 250 ppm ABA, 3 days after treatment (Table 6)
  Transpiration rate (% of control): 86 % of control
[1]; 250 ppm ABA, 3 days after treatment (Table 11)
  Transpiration rate (% of control): 94 % of control
[1]; 250 ppm ABA, 3 days after treatment (Table 13)
  Transpiration rate (% of control): 95 % of control
[1]; 250 ppm ABA, 3 days after treatment (Table 14)
  Transpiration rate (% of control): 95 % of control
[1]; 250 ppm ABA, 4 days after treatment (Table 5)
  Transpiration rate (% of control): 100 % of control
[1]; 250 ppm ABA, 4 days after treatment (Table 6)
  Transpiration rate (% of control): 90 % of control
[1]; 250 ppm ABA, 4 days after treatment (Table 13)
  Transpiration rate (% of control): 100 % of control
[1]; 250 ppm ABA, 4 days after treatment (Table 14)
  Transpiration rate (% of control): 100 % of control
[1]; 250 ppm ABA, average of days 1-3 (Table 11)
  Transpiration rate (% of control), Average: 87 % of control
[1]; 250 ppm ABA, average of first 3 days after treatment (Table 1)
  Transpiration rate (% of control): 88 % of control
[1]; 250 ppm ABA, average of first 3 days after treatment (Table 3)
  Transpiration rate (% of control): 83 % of control
[1]; 250 ppm ABA, average of first 3 days after treatment (Table 4)
  Transpiration rate (% of control): 96.32 % of control
[1]; 250 ppm ABA, average of first 3 days after treatment (Table 9)
  Transpiration rate (% of control): 73 % of control
[1]; 500 ppm ABA, average of first 3 days after treatment
  Transpiration rate (% of control): 74 % of control
[1]; 1000 ppm ABA, average of first 3 days after treatment
  Transpiration rate (% of control): 68 % of control
[1]; calculated from linear regression of relative transpiration (3-day average) on log10 ABA concentration
  ABA concentrations to achieve 50% inhibition of transpiration: 3328 ppm

Reference: US20130123107A1, “Use of Adjuvants to Improve Abscisic Acid Performance” (Valent BioSciences Corporation, priority 2007, published 2013)
